Measurements from PubChem BioAssay AID1963972 (Molecular Pharmacology Branch, DTP, NCI, 2024).

System: 945468-187-T-J2-PDC spheroids viability
Experiment: Anticancer human tumor 945468-187-T-J2-PDC patient-derived rectal carcinoma cell line growth inhibition [PI3K]
Settings: spheroids with HUVEC and MSC; for IC50: curve of first compound; for viability, T/C: stronger effect = lower value
Description: Combinatorial screen of targeted agents with the PI3K inhibitors inavolisib, alpelisib, duvelisib, and copanlisib in multi-cell type tumor spheroids
A high-throughput screen of multi-cell type tumor spheroids was designed to identify active combinations of targeted small molecules and PI3K pathway inhibitors. Complex spheroids include a stromal component modeled by human endothelial cells (HUVEC) and fibroblasts modeled by human mesenchymal stem cells (MSCs). The concentration ranges selected for each drug and investigational agent were based upon clinically achievable concentrations if the clinical Cmax of the agent was known.
Compounds. The drugs and investigational agents: inavolisib (NSC800729), alpelisib (NSC765974), duvelisib (NSC772469), copanlisib (NSC816437), ipatasertib (NSC767898), afuresertib (NSC778305), talazoparib (NSC767125), sapanisertib (NSC764658), selumetinib (NSC741078), tovorafenib (DAY101, NSC766906), vemurafenib (NSC761431), ravoxertinib (NSC781343), sotorasib (NSC818433), MRTX1133 (NSC 836407), abemaciclib (NSC 768073), palbociclib (NSC758247), venetoclax (NSC 766270), SY5609 (NSC837396), enzalutamide (NSC755605), and darolutamide (NSC825331), were obtained from the National Cancer Institute (NCI) Developmental Therapeutics Program Chemical Repository. The FDA-approved anticancer drug set is available from the NCI Developmental Therapeutics Program. […] The stock solutions were prepared in dimethyl sulfoxide (DMSO, Sigma-Aldrich, St. Louis, MO, cat. D2650) at 800-fold the tested concentration and stored at -70 degrees C prior to their use. All drugs and investigational agents were tested over a range starting from a high concentration at or near the clinical Cmax and decreasing in half-log increments. If the clinical Cmax for an agent had not been determined, the highest concentration tested was 10 microM.
Cell Culture. All cells were maintained in an incubator at 37 degrees C and 5% CO2 with 95% humidity. The PDC lines were cultured according to standard operating procedures established by the NCI PDMR (https://pdmr.cancer.gov/sops/default.htm). All PDCs were thawed and cultured in Matrigel-coated flasks prepared with a working solution of 1X Ham's F-12 nutrient mix, without supplementation (Invitrogen, Waltham, MA, cat. 11765054), 100 U/mL penicillin-streptomycin (Invitrogen, cat. 15140122), and 2.5% Matrigel (Corning Inc., Corning, NY, cat. 354248) for the first three passages. The 354836-022-R-J1-PDC, 475296-252-R-J1-PDC, and 997726-040-R-J2-PDC lines were cultured in 6A media, which includes advanced DMEM/F-12 (Thermo Fisher Scientific, cat. 12634028), 10 mM HEPES (Thermo Fisher Scientific, cat. 15630080), 1X GlutaMAX supplement (Thermo Fisher Scientific, cat. 35050061), 0.1 mg/mL primocin (InvivoGen, San Diego, CA, cat. ant-pm-2), 10% defined fetal bovine serum, heat inactivated (HyClone Laboratories Inc., Logan, UT, cat. SH30070.03HI), 50% L-WRN conditioned media (ATCC, cat. CRL-3276), 1.25 mM N-Acetyl-L-cysteine (Sigma-Aldrich, cat. A9165), 10 mM nicotinamide (Sigma-Aldrich, cat. N0636), 1X B-27 supplement (Thermo Fisher Scientific, cat. 17504044), 1X N-2 supplement (Thermo Fisher Scientific, cat. 17502048), and 10 microM Y-27632 dihydrochloride (Tocris Bioscience, Bristol, United Kingdom, cat. 1254). The 624824-186-R-J2-PDC line was cultured in 6C/Colon 1B media, which includes all 6A media components plus 50 ng/mL human EGF recombinant protein (Thermo Fisher Scientific, cat. PHG0311). […]

[1] = second compound 0.0316 µM, first compound 0.0316 µM
[2] = second compound 0.0316 µM, first compound 0.1 µM
[3] = second compound 0.0316 µM, first compound 0.316 µM
[4] = second compound 0.0316 µM, first compound 1 µM
[5] = second compound 0.0316 µM, first compound 3.16 µM
[6] = second compound 0.0316 µM, first compound 10 µM
[7] = second compound 0.1 µM, first compound 0.0316 µM
[8] = second compound 0.1 µM, first compound 0.1 µM
[9] = second compound 0.1 µM, first compound 0.316 µM
[10] = second compound 0.1 µM, first compound 1 µM
[11] = second compound 0.1 µM, first compound 3.16 µM
[12] = second compound 0.1 µM, first compound 10 µM
[13] = second compound 0.316 µM, first compound 0.0316 µM
[14] = second compound 0.316 µM, first compound 0.1 µM
[15] = second compound 0.316 µM, first compound 0.316 µM
[16] = second compound 0.316 µM, first compound 1 µM
[17] = second compound 0.316 µM, first compound 3.16 µM
[18] = second compound 0.316 µM, first compound 10 µM
[19] = second compound 1 µM, first compound 0.0316 µM
[20] = second compound 1 µM, first compound 0.1 µM
[21] = second compound 1 µM, first compound 0.316 µM
[22] = second compound 1 µM, first compound 1 µM
[23] = second compound 1 µM, first compound 3.16 µM
[24] = second compound 1 µM, first compound 10 µM
[25] = second compound 3.16 µM, first compound 0.0316 µM
[26] = second compound 3.16 µM, first compound 0.1 µM
[27] = second compound 3.16 µM, first compound 0.316 µM
[28] = second compound 3.16 µM, first compound 1 µM
[29] = second compound 3.16 µM, first compound 3.16 µM
[30] = second compound 3.16 µM, first compound 10 µM
[31] = second compound 10 µM, first compound 0.0316 µM
[32] = second compound 10 µM, first compound 0.1 µM
[33] = second compound 10 µM, first compound 0.316 µM
[34] = second compound 10 µM, first compound 1 µM
[35] = second compound 10 µM, first compound 3.16 µM
[36] = second compound 10 µM, first compound 10 µM
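Further: spheroids exposed to compounds for seven days before reading.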

## CC1(C)CCC(CN2CCN(c3ccc(C(=O)NS(=O)(=O)c4ccc(NCC5CCOCC5)c([N+](=O)[O-])c4)c(Oc4cnc5[nH]ccc5c4)c3)CC2)=C(c2ccc(Cl)cc2)C1 + CC(Nc1ncnc2nc[nH]c12)c1cc2cccc(Cl)c2c(=O)n1-c1ccccc1
Second compound 0.0316 µM
  IC50: > 10 µM
Second compound 0.1 µM
  IC50: > 10 µM
Second compound 0.316 µM
  IC50: > 10 µM
Second compound 1 µM
  IC50: > 10 µM
Second compound 3.16 µM
  IC50: > 10 µM
Second compound 10 µM
  IC50: > 10 µM
[1]
  viability, T/C: 91.7%
[2]
  viability, T/C: 92.2%
[3]
  viability, T/C: 99.8%
[4]
  viability, T/C: 98.2%
[5]
  viability, T/C: 94%
[6]
  viability, T/C: 81%
[7]
  viability, T/C: 82.3%
[8]
  viability, T/C: 75.7%
[9]
  viability, T/C: 84.5%
[10]
  viability, T/C: 78.6%
[11]
  viability, T/C: 96.5%
[12]
  viability, T/C: 79.1%
[13]
  viability, T/C: 97.1%
[14]
  viability, T/C: 93.4%
[15]
  viability, T/C: 93.2%
[16]
  viability, T/C: 100%
[17]
  viability, T/C: 119%
[18]
  viability, T/C: 80.5%
[19]
  viability, T/C: 97.4%
[20]
  viability, T/C: 87.8%
[21]
  viability, T/C: 103%
[22]
  viability, T/C: 92.9%
[23]
  viability, T/C: 107%
[24]
  viability, T/C: 63.2%
[25]
  viability, T/C: 96%
[26]
  viability, T/C: 115%
[27]
  viability, T/C: 84.8%
[28]
  viability, T/C: 134%
[29]
  viability, T/C: 102%
[30]
  viability, T/C: 86.6%
[31]
  viability, T/C: 94.5%
[32]
  viability, T/C: 81.5%
[33]
  viability, T/C: 104%
[34]
  viability, T/C: 124%
[35]
  viability, T/C: 97.7%
[36]
  viability, T/C: 84.8%

## C[C@@H](NC(=O)c1ncnc(N)c1Cl)c1ncc(C(=O)Nc2cc(C(F)(F)F)c(Cl)cn2)s1 + CC(Nc1ncnc2nc[nH]c12)c1cc2cccc(Cl)c2c(=O)n1-c1ccccc1
Second compound 0.0316 µM
  IC50: > 10 µM
Second compound 0.1 µM
  IC50: > 10 µM
Second compound 0.316 µM
  IC50: > 10 µM
Second compound 1 µM
  IC50: > 10 µM
Second compound 3.16 µM
  IC50: > 10 µM
Second compound 10 µM
  IC50: > 10 µM
[1]
  viability, T/C: 83.6%
[2]
  viability, T/C: 82.8%
[3]
  viability, T/C: 113%
[4]
  viability, T/C: 106%
[5]
  viability, T/C: 109%
[6]
  viability, T/C: 86.2%
[7]
  viability, T/C: 119%
[8]
  viability, T/C: 108%
[9]
  viability, T/C: 85.5%
[10]
  viability, T/C: 68.7%
[11]
  viability, T/C: 121%
[12]
  viability, T/C: 104%
[13]
  viability, T/C: 119%
[14]
  viability, T/C: 90.9%
[15]
  viability, T/C: 99.3%
[16]
  viability, T/C: 92.2%
[17]
  viability, T/C: 93.3%
[18]
  viability, T/C: 80.7%
[19]
  viability, T/C: 92.7%
[20]
  viability, T/C: 108%
[21]
  viability, T/C: 81.3%
[22]
  viability, T/C: 95%
[23]
  viability, T/C: 83.1%
[24]
  viability, T/C: 90.1%
[25]
  viability, T/C: 103%
[26]
  viability, T/C: 110%
[27]
  viability, T/C: 77.7%
[28]
  viability, T/C: 124%
[29]
  viability, T/C: 110%
[30]
  viability, T/C: 104%
[31]
  viability, T/C: 83%
[32]
  viability, T/C: 123%
[33]
  viability, T/C: 110%
[34]
  viability, T/C: 84.4%
[35]
  viability, T/C: 119%
[36]
  viability, T/C: 108%
